The source of these data is US20050019826A1 (priority 2000, published 2005).

In assay [1] the test system is KDR. Description: Displacement of 125I-VEGF165 binding to CHO-KDR transfected cells by V1 derivatives. The following applies: for peptide efficiency after change of C-terminal arginine: compared with V1; for Efficiency (% Emax): relative to V1 = 100. An excerpt:
FIG. 11. […] Experimental conditions are indicated in the legend of FIG. 10.
FIG. 12. […] Experimental conditions are indicated in the legend of FIG. 10.
(§1) Experimental conditions are indicated in the legend of FIG. 10.
FIG. 17. […] Experimental conditions are indicated in the legend of FIG. 10.
For orientation: Loss of bound radioactivity is the signal in a displacement assay; it reports binding, not function.

Assay [2] concerns the target T1, KDR (Homo sapiens, UniProt P35968).
T1 construct: endogenous in cells; host or cells: HUAE cells
In words: HUAE cell proliferation induced by KDR anti-idiotypic antibodies (AIA). It counts as cell-based. As to conditions: 100 ng/ml KDR anti-idiotypic antibodies, peptide daily, 5 days. As for the experimental part:
(§2) FIG. 7. […] Cells were counted after 5 days. Data are means of proliferation inhibition percentages for triplicate samples.
(§3) Cell proliferation assay. To test the anti-VEGF antibody neutralizing effect, CPAE cells were plated into 96-well tissue culture plates at a density of 500 cells/well. After 24 h, various concentrations of anti-VEGF antibody were added. The cells were cultured for an additional day and cell proliferation was measured using the Cell proliferation ELISA kit from Boerhinger (Indianapolis, Ind.). Cells were incubated with BrdU for 4 h at 37° C., and the incorporation of BrdU in newly synthetized DNA was quantified by immunoassay as described by the manufacturer. To investigate the peptide effect, after 24 h of CPAE cell growth, 2.1×10^−4M synthetic peptides were added daily to the culture medium. Cell proliferation was assessed after 24 h, 48 h or 72 h as described above. […] Cells were trypsinized and counted after 5 days using a Coulter counter.

Assay [3] concerns Human Umbilical Artery Endothelial Cells (HUAE). Description: HUAE cell proliferation induced by VEGF. It counts as cell-based. The following applies: 2 ng/ml VEGF, peptide daily, 5 days. As for the experimental part: as §2, §3
Assay [4] has as its system Calf pulmonary artery endothelial cells (CPAE). Description: CPAE cell proliferation assay (BrdU incorporation). The class given is cell-based. The following applies: 2.1×10^−4M synthetic peptide, 24 h. The protocol: FIG. 3. The anti-VEGF antibody blocks CPAE cell growth. CPAE cell growth was measured in cultures supplemented with various concentrations of anti-VEGF antibody and compared with untreated cultures. Data represent means and standard deviations of proliferation inhibition for triplicate samples and are representative of two independent experiments.
FIG. 6. V1 inhibits CPAE cell proliferation. CPAE cell growth was measured after 24h of incubation in presence of synthetic peptides selected by antibody binding (A) or by KDR binding (B) and compared with untreated cultures. Data represent means and standard deviations of proliferation inhibition for triplicates and are representative of three independent experiments.
as §3
A general note: Dividing cells build labelled thymidine or BrdU into new DNA.

Assay [5] deals with VEGF-induced corneal angiogenesis. Description: Rabbit corneal pocket assay. It counts as in vivo, New Zealand rabbit. As to conditions: day 12; for effect on VEGF-induced corneal angiogenic response: implant 2 pmol VEGF + 30 nmol peptide; for neovascularization by peptide compared with vehicle alone: implant 30 nmol peptide, absence of VEGF. As for the experimental part: FIG. 9. V1 inhibits corneal angiogenesis in vivo.
Rabbit corneal pocket assay. […] These implants were inserted in New Zealand rabbit (Elevage du Trottis, Esperce, France) corneal stroma 2 mm away from the limbus (Favard et al, 1991). Neovascularization was assessed on day 12 by direct examination with a slit lamp and scored according to a 4 grade scale (grade 1: less than 1 mm long neovessels, grade 2: 1 mm long neovessels, grade 3: 1 to 2 mm long neovessels, grade 4: neovessels extending to the implant). Means and standard deviations were determined on 8 implant groups for each condition.

The subject of assay [6] is KDR. Description: ELISA of the phage-displayed peptide binding to CHO-KDR cells. The following applies: clones selected by anti-VEGF antibody binding, 10^12 pfu/ml. The protocol: FIG. 2. […] Clones selected by KDR binding (10^13 pfu/ml) (A) or by anti-VEGF antibody binding (10^12 pfu/ml) (B) were compared with M13 phage particles (control). Results are representative of three independent assays.
Exponentially growing CHO-KDR cells were seeded in 96-well microtiter plates at 7×10^4 cells/well and left overnight at 37° C. Cells were fixed with paraformaldehyde (4% in PBS) for 15 min at room temperature and washed with PBS. Wells were then filled with PBS-Glycine 0.2%, kept for 15 min at room temperature and then washed with PBS. Phage particles (10^12 or 10^13/ml) were added to each well and incubated 2 h at room temperature. Wells were washed with PBS and the amount of bound phage was detected with peroxidase-conjugated anti-M13 phage serum (Pharmacia Biotech, Uppsala, Sweden).
In general terms: ELISA stands for enzyme-linked immunosorbent assay.

Assay [7] deals with Human umbilical vein endothelial cell (HUVEC). Description: VEGF165 induced HUVEC proliferation. The class given is cell-based. The following applies: V1 400 μg/ml, various VEGF165 concentrations, 96 hours. The protocol:
FIG. 13. Effect of V1 (400 μg/ml) VEGF165 induced HUVEC proliferation. Various concentrations of VEGF165 were added during 96 hours.
The inhibitory effect of V1 on Human umbilical vein endothelial cell (HUVEC) in primary culture.

Assay [8] concerns 125I-VEGF-receptor complexes (VEGF-R2, NP1) on HUV-EC cells. Description: Cross linking of 125I VEGF165 to HUV-EC cells. It counts as binding, human. As to conditions: V1 2.4×10^−4M and 4.8×10^−4M, 125I VEGF165 160 pM. An excerpt: FIG. 19. […] 1: Total binding. […] 3: V1, (2.4×10^−4M). 4: V1, (4.8×10^−4M).
Another assay deals with NIH 3T3 fibroblasts. In words: NIH3T3 fibroblast proliferation. The class given is cell-based. The following applies: 24 h. As for the experimental part:
FIG. 8. V1 acts specifically on endothelial cells. CPAE and NIH 3T3 fibroblasts were cultured with or without V1 peptide, and the changes in cell proliferation were measured after 24 h. Data represent the means and standard deviations of proliferation inhibition percentages for triplicate samples, and similar results were obtained in two independent experiments.
as §3

The test system of the next assay is VEGF-R2 on HUV-EC Cells. In words: 125I-VEGF165 binding to HUV-EC cells (Scatchard). On the set-up: species or system human. As to conditions: V1 40 μg/ml.
Excerpt: as §1
(see FIGS. 16A, B and C).

Assay [9] has as its system KDR. Description: Competition assay of 125I-VEGF binding to CHO-KDR cells. Further details: block of VEGF binding to CHO-KDR cells: dose or concentration left out as unconfirmed. As to conditions: for inhibitory effect on VEGF binding to KDR: fixed peptide concentration 2.1×10^−4M, heparin 1.8 μg/ml. The protocol:
FIG. 1. […] (B) Effect of heparin. […] Data correspond to the mean and standard deviations of triplicate samples.
FIG. 4. […] Data represent the means and standard deviations of triplicate samples.
FIG. 5. […] Data represent the mean and standard deviations of triplicate samples.
Competition assay of binding to CHO-KDR cells. CHO-KDR cells were seeded in 24-well plates at a density of 5×10^5 cells/well. After 24 h, subconfluent plates were transferred at 4° C., and all subsequent operations were done at 4° C. […] After 3 h, cells were washed five times with binding buffer and solubilized by the addition of 0.5 M NaOH. The amount of radioactivity bound to the cells was counted in a gamma counter (LKB 1261 Multigamma). The receptor affinity and the number of binding sites per cell were determined by Scatchard's analysis (Scatchard, 1986).

The target of assay [10] is T2, recombinant KDR expressed at the membrane surface of CHO-KDR cells (UniProt P35968 20-1356, limits assumed).
T2 construct: whole, on cells; also called VEGFR-2; VEGF-R2
In words: displacement of 125I-VEGF165 from CHO-KDR transfected cells. The protocol: Competition assay of binding to CHO-KDR cells. CHO-KDR cells were seeded in 24-well plates at a density of 5×10⁵ cells/well. After 24 h, subconfluent plates were transferred at 4° C., and all subsequent operations were done at 4° C. […] After 3 h, cells were washed five times with binding buffer and solubilized by the addition of 0.5 M NaOH. The amount of radioactivity bound to the cells was counted in a gamma counter (LKB 1261 Multigamma). The receptor affinity and the number of binding sites per cell were determined by Scatchard's analysis (Scatchard, 1986).

The mark [11] stands for this setting: heparin various amounts, PlGF 50 ng/ml.

“Also recorded” adds a separate entry of the source. Ends that are not written are not given here.

T2 sequence (P35968 20-1356 limits assumed): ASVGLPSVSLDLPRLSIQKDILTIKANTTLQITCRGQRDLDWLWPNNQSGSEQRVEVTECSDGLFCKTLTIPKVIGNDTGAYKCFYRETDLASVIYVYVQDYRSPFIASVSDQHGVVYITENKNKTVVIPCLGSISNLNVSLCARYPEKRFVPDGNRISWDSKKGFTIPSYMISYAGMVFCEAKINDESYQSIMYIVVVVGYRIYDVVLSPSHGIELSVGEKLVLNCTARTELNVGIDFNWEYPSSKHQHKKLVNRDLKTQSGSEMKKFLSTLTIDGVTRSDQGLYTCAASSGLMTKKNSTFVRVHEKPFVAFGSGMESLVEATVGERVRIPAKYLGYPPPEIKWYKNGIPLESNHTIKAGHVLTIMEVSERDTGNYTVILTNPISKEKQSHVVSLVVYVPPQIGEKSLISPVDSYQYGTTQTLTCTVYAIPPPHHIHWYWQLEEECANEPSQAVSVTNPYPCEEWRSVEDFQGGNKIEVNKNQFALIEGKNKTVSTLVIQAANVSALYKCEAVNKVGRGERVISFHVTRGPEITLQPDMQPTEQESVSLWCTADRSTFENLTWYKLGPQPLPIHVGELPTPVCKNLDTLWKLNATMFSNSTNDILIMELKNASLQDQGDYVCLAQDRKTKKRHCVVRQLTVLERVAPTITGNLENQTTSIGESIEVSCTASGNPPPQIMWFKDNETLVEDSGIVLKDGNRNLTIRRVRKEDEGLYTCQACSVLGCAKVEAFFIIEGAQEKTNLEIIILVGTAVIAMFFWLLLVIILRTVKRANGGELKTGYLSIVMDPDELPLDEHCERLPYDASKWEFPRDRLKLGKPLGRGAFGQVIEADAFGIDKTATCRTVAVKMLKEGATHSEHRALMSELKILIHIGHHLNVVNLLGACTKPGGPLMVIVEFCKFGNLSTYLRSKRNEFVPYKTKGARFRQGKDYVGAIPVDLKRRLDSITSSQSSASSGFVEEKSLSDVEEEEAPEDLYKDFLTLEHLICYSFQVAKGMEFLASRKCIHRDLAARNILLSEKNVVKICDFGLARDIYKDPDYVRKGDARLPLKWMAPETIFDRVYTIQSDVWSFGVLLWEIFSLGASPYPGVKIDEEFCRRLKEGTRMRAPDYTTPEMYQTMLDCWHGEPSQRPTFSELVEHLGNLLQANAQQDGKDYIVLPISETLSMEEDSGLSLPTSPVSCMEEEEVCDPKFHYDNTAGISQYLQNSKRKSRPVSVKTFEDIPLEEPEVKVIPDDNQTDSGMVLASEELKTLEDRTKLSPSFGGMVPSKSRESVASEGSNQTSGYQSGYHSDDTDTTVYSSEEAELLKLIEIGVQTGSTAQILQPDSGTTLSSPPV
T1 sequence (P35968 20-1356): as the sequence (P35968 20-1356 limits assumed) above

In the case of “AAWLPPK [A9, V1 analogue, C-terminal arginine substituted by lysine]”, the “peptide efficiency after change of C-terminal arginine” value in the assay on KDR [1] is on record as “also reduced the peptide efficiency”.

Consider AAWLPPR [A2], for which, in the assay on KDR [1], the “Efficiency (% Emax)” value is 61 % Emax.

For ATALPP [A10], in the assay on KDR [1], the “peptide efficiency after change of C-terminal arginine” value is listed as “significantly reduced the peptide efficiency”.

Regarding ATALPPR [A3], the “Efficiency (% Emax)” value in the assay on KDR [1] is 70 % Emax.

As for ATWAPPR [A4], the “Efficiency (% Emax)” value in the assay with KDR [1] was 31 % Emax.

Consider ATWLAPR [A5], for which the “Efficiency (% Emax)” value in the assay with KDR [1] turned out to be 65 % Emax.

For ATWLPAR [A6], the “Efficiency (% Emax)” value in the assay with KDR [1] is reported as 84 % Emax.

With ATWLPPA [A7], in the assay with KDR [1] (AlaScan), the “activity of alanine-substituted analogues in displacement of 125I-VEGF165” value was “totally devoid of activity”. The “Efficiency (% Emax)” value with KDR [1] turned out to be 0 % Emax.

For the molecule ATWLPPR [V1, ATWLPPR], the “effect on AIA-dependent cell proliferation” value on KDR [2] is “could suppress the AIA-dependent cell proliferation”. Also, the “effect on VEGF-induced proliferation of human endothelial cells” value in assay [3] is “suppressed the mitogenic activity of VEGF in a dose dependent manner”. The “reduction of CPAE cell proliferation” value in assay [4] is recorded as 60%. The “effect on binding and affinity of 125I VEGF165 to VR2 on transfected CHO cells” value in the assay on KDR [1] (50 μg/ml V1, Scatchard) was “inhibited the binding; also recorded: affinity is lowered”. Moreover, in the assay with KDR [1] (125I-VEGF 7 pM, heparin 1 μg/ml, 3 hours +4° C., read-out: CI50 (the source's name)), the IC50 is 18.8 µM. The “effect on heparin agonistic effect on VEGF165 binding” value in the assay on KDR [1] (V1 50 μg/ml) is on record as “inhibited this heparin agonistic effect”. In the assay on KDR [1], the “Efficiency (% Emax)” value came to 100 % Emax. For the same molecule, in assay [5], the “effect on VEGF-induced corneal angiogenic response” value is listed as “totally abolished” and the “neovascularization by peptide compared with vehicle alone” value was “did not improve the generation of new blood vessels”. The “ELISA signal of phage clone binding to CHO-KDR cells” value in the assay with KDR [6] is “best reactivities”. Further, the “effect on VEGF-induced HUVEC proliferation” value in assay [7] is given as “inhibited by V1 in a non competitive manner”. Further, the “labeling of 125I-VEGF-receptor complexes (240-260 kDa and 160-170 kDa)” value in [8] is reported as “decreased”. Further, the “effect on NIH 3T3 fibroblast proliferation” value with NIH 3T3 fibroblasts is given as “did not modify the proliferation”. Besides, the “effect on VEGF binding to HUV-EC receptors” value with VEGF-R2 on HUV-EC Cells is recorded as “inhibited only the VEGF binding to high affinity receptors”. Besides, in the assay with KDR [9], the “block of VEGF binding to CHO-KDR cells” value is given as “nearly block VEGF binding” and the “inhibitory effect on VEGF binding to KDR” value is listed as “showed an inhibitory effect”. Besides, the IC50 in the assay with KDR [9] (read-out: IC50 for inhibition of VEGF binding to CHO-KDR cells, estimated) was 80 µM.

ILDNYKL [V5]: the “effect on VEGF-induced proliferation of human endothelial cells” value in assay [3] is “no inhibitory effect”. For the same molecule, in assay [5], the “effect on VEGF-induced corneal angiogenic response” value is recorded as “not modified” and the “neovascularization by peptide compared with vehicle alone” value was “did not improve the generation of new blood vessels”. Further, the “effect on VEGF binding to CHO-KDR cells” value in the assay with KDR [9] (various concentrations, same conditions as V1) is given as “did not modify VEGF binding”.

Regarding LPPNPTK [V6], the “reduction of CPAE cell proliferation” value in assay [4] was “significantly inhibited the proliferation of endothelial cells”. In addition, in the assay with KDR [6], the “ELISA signal of phage clone binding to CHO-KDR cells” value is listed as “best reactivities”. Moreover, the “inhibitory effect on VEGF binding to KDR” value with KDR [9] was “did not affect the binding of VEGF to KDR; also recorded: no effect on VEGF binding to KDR”.

For the molecule SLPAHAR [K4], the “reduction of CPAE cell proliferation” value in [4] was “minor effect on endothelial growth”. Further, the “inhibitory effect on VEGF binding to KDR” value in the assay on KDR [9] is “could partially inhibit VEGF binding to KDR”.

Regarding heparin [reference compound], the “optimal heparin concentration for increasing VEGF binding” value in the assay with KDR [9] was determined as 1.8 µg/mL. Also, in the assay with KDR [9] (setting [11]), the “effect on VEGF binding to CHO-KDR cells” value is recorded as “increase the binding of VEGF”.

ATWLPPA (AlaScan analogue of ATWLPPR) [V1 analogue A7 (Ala7-substituted analogue)]: the “Efficiency (% Emax)” value in [10] is 0 % Emax.

B1: PlGF: placenta growth factor (R & D Systems) (protein)
chain: AVPPQQWALSAGNGSSEVEVVPFQEVWGRSYCRALERLVDVVSEYPSEVEHMFSPSCVSLLRCTGCCGDENLHCVPVETANVTMQLLKIRSGDRPSYVELTFSQHVRCECRPLREKMKPERCGDAVPRR
Regarding B1, the “effect on VEGF binding to CHO-KDR cells” value in the assay on KDR [9] (setting [11]) is listed as “not modifying VEGF binding”.
